In patent US11111248B2, “Crystal form of 2-(6-methyl-pyridin-2-yl)-3-yl-[6-amido-quinolin-4-yl]-5,6-dihydro-4H-pyrrolo[1,2-B]pyrazole, preparation method therefor and pharmaceutical composition thereof” (Hangzhou SoliPharma Co., Ltd., priority 2017, dated 2021):
Converted amounts (≈) assume the structure as drawn. “Also recorded” adds a separate entry of the source.

How the values were obtained:
Type in all cases: physicochemical
[1] = thermal phase stability from DSC and TGA thermograms; settings: for phase transformation on heating: DSC and TGA thermograms
Experimental: […] data were collected on TA Instruments Q200 DSC. Method: A sample of 1 to 10 mg was placed in an aluminum pan with a pin-holed lid, and the sample was heated from room temperature to 200° C. at a heating rate of 10° C./min under the protection of dry nitrogen purge at 40 mL/min.
Thermogravimetric analysis data were collected on TA Instruments Q500 TGA. Method: A sample of 5 to 15 mg was placed in a platinum pan, using High Resolution™, the sample was heated from room temperature to 350° C. at a heating rate of 10° C./min under the protection of dry nitrogen purge at 40 mL/min.

water solubility test = settings: for Solubility: 25° C.±2° C., visual clarity, 5 mg sample, max 100 mL water
Experimental: Accurately weighed 5 mg samples in a 200 mL flask which was in a water bath with temperature 25° C.±2° C., added water in a geometric fashion the flask, stirred (about 200 r/min), and observed by naked eyes to see if it was clear. Water was added every 3 mins, maximum water amount 100 mL.

[2] = isothermal sorption (dynamic vapor sorption); settings: 0% RH to 80% RH; for hygroscopicity: isothermal sorption
Experimental: Dynamic vapor sorption data and isothermal sorption data were collected on TA Instruments Q5000 TGA. Method: A sample of 1 to 10 mg was placed in a platinum pan; the weight change of the sample during the change in relative humidity from 0% to 80% to 0% was measured.

SMILES | phase transformation on heating [1] | water solubility (water solubility test) | Solubility (water solubility test) [µg/mL] | hygroscopicity [2] | weight change, isothermal sorption curve [2] [%] | dehydration and start of phase transition temperature ([1]; DSC) [°C] | phase transition temperature lower than that of Form 2 ([1]; DSC thermograms, difference to Form 2) [°C]
Cc1cccc(-c2nn3c(c2-c2ccnc4ccc(C(N)=O)cc24)CCC3)n1 [LY2157299 Form 1, 2-(6-methyl-pyridin-2-yl)-3-(6-amido-quinolin-4-yl)-5,6-dihydro-4h-pyrrolo[1,2-b]pyrazole] | no phase transformation before melting | about 160 ug/mL | 160 (≈ 433 µM) | non-hygroscopic |  |  | 
Cc1cccc(-c2nn3c(c2-c2ccnc4ccc(C(N)=O)cc24)CCC3)n1 [LY2157299 Form 2, 2-(6-methyl-pyridin-2-yl)-3-(6-amido-quinolin-4-yl)-5,6-dihydro-4h-pyrrolo[1,2-b]pyrazole] |  | about 200 ug/mL | 200 (≈ 541 µM) | slightly hygroscopic | 0.25 |  | 
Cc1cccc(-c2nn3c(c2-c2ccnc4ccc(C(N)=O)cc24)CCC3)n1 [LY2157299 Form 3, 2-(6-methyl-pyridin-2-yl)-3-(6-amido-quinolin-4-yl)-5,6-dihydro-4h-pyrrolo[1,2-b]pyrazole] | no phase transformation before melting | about 150 μg/mL | 150 (≈ 406 µM) | non-hygroscopic |  |  | 
Cc1cccc(-c2nn3c(c2-c2ccnc4ccc(C(N)=O)cc24)CCC3)n1 [LY2157299 Form 4, 2-(6-methyl-pyridin-2-yl)-3-(6-amido-quinolin-4-yl)-5,6-dihydro-4h-pyrrolo[1,2-b]pyrazole] |  | about 100 ug/mL | 100 (≈ 271 µM) | slightly hygroscopic | 0.95 |  | 
Cc1cccc(-c2nn3c(c2-c2ccnc4ccc(C(N)=O)cc24)CCC3)n1 [LY2157299 Form 7, 2-(6-methyl-pyridin-2-yl)-3-(6-amido-quinolin-4-yl)-5,6-dihydro-4h-pyrrolo[1,2-b]pyrazole] |  | about 100 μg/mL | 100 (≈ 271 µM) |  |  |  | 
Cc1cccc(-c2nn3c(c2-c2ccnc4ccc(C(N)=O)cc24)CCC3)n1 [LY2157299 Monohydrate, 2-(6-methyl-pyridin-2-yl)-3-(6-amido-quinolin-4-yl)-5,6-dihydro-4h-pyrrolo[1,2-b]pyrazole] | dehydrates under temperature and its phase transformes; also recorded: dehydrates under temperature and has phase transformation |  | <50 | slightly hygroscopic |  | 133 | 60
